In general, IC50 refers to the midpoint of a concentration-inhibition curve.

Among the data in patent US9598423B2 (BRISTOL-MYERS SQUIBB COMPANY, priority 2013, dated 2017) are IC50 values, retold here.

The target in one assay is CK1δ (Homo sapiens (Human), UniProt P48730). In words: CK1δ kinase assay (Caliper LABCHIP electrophoretic separation of fluoresceinated peptide substrate and product). The assay is classed as biochemical. The conditions noted are these: 200 pM CK1δ, 50 μM ATP, 1.5 μM peptide substrate, 22 hours at room temperature; read-out: CK1δ (IC50). The essentials:
(§1)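 Reactions ran 22 hours at room temperature and were stopped with EDTA. Phosphorylated product and unphosphorylated substrate were then separated electrophoretically. Compounds were tested at eleven concentrations, and IC50 values came from non-linear regression.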

The next assay addresses CK1ε (Homo sapiens (Human), UniProt P49674). In words: CK1ε kinase assay (Caliper LABCHIP electrophoretic separation of fluoresceinated peptide substrate and product). The assay is classed as biochemical. The conditions noted are these: 200 pM CK1ε, 50 μM ATP, 1.5 μM peptide substrate, 22 hours at room temperature; read-out: CK1ε (IC50). The essentials:
as §1

Sequence of CK1δ (P48730 whole entry): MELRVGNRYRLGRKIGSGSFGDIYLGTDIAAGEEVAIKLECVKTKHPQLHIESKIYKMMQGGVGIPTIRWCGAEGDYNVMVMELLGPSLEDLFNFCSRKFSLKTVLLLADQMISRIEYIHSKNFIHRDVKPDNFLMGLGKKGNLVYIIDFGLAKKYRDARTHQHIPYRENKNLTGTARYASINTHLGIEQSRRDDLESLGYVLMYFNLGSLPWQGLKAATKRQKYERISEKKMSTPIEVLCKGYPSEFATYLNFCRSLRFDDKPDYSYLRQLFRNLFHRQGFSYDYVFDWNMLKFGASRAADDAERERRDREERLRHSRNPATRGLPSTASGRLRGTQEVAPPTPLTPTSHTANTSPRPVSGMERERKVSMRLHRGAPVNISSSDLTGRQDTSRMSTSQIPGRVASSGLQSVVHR
Sequence of CK1ε (P49674 whole entry): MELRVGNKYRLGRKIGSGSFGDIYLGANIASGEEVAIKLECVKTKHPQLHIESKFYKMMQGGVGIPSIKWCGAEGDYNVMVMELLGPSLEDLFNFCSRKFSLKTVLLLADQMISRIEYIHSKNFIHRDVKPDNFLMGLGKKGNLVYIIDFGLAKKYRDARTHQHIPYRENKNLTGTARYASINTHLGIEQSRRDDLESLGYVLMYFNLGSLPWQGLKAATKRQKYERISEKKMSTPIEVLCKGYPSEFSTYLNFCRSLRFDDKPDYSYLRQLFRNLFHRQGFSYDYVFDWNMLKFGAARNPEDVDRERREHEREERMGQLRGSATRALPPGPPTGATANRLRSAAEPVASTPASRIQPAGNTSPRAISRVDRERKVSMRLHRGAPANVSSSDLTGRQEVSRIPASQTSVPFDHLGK

Regarding `N#Cc1ccc(NC(=O)N2CCn3nc(-c4cncc(Cl)c4)c(C(N)=O)c3C2)cc1` [Compound 270, 2-(5-Chloropyridin-3-yl)-N^5-(4-cyanophenyl)-6,7-dihydropyrazolo[1,5-a]pyrazine-3,5(4H)-dicarboxamide], the IC50 at CK1δ and on CK1ε was 0.01 to 10 nM each time.

On to `N#Cc1ccc(NC(=O)N2CCn3nc(-c4ccc(F)c(F)c4)c(C(N)=O)c3C2)cc1C(F)(F)F` [Compound 237, N^5-(4-Cyano-3-(trifluoromethyl)phenyl)-2-(3,4-difluorophenyl)-6,7-dihydropyrazolo [1,5-a]pyrazine-3,5(4H)-dicarboxamide], for which the IC50 on CK1δ and on CK1ε was 0.01 to 10 nM each time.

Turning to `Cc1cc(-c2nn3c(c2C(N)=O)CN(C(=O)Nc2ccc4ncsc4c2)CC3)ccc1F` [Compound 241, N^5-(Benzo[d]thiazol-6-yl)-2-(4-fluoro-3-methylphenyl)-6,7-dihydropyrazolo[1,5-a] pyrazine-3,5(4H)-dicarboxamide], the IC50 on CK1δ and at CK1ε was 0.01 to 10 nM in each case.

In the case of `Cc1nc2cc(-c3nn4c(c3C(N)=O)CN(C(=O)Nc3ccc(C#N)c(C)c3)CC4)cc(Cl)c2o1` [Compound 313, 2-(7-Chloro-2-methylbenzo[d]oxazol-5-yl)-N^5-(4-cyano-3-methylphenyl)-6,7-dihydropyrazolo[1,5-a]pyrazine-3,5(4H)-dicarboxamide], the IC50 at CK1δ and on CK1ε was 0.01 to 10 nM in each case.

For `Cc1cc(-c2nn3c(c2C(N)=O)CN(C(=O)Nc2ccc(C#N)c(C(F)(F)F)c2)CC3)ccc1F` [Compound 245, N^5-(4-Cyano-3-(trifluoromethyl)phenyl)-2-(4-fluoro-3-methylphenyl)-6,7-dihydropyrazolo[1,5-a] pyrazine-3,5(4H)-dicarboxamide], the IC50 on CK1δ and on CK1ε was 0.01 to 10 nM in each case.

As for `CC(C)(O)[C@@H]1CN(C(=O)Nc2ccc(C#N)cc2)Cc2c(C(N)=O)c(-c3ccc(Cl)c(Cl)c3)nn21` (single isomer, unassigned) [Compound A34, N^5-(4-Cyanophenyl)-2-(3,4-dichlorophenyl)-7-(2-hydroxypropan-2-yl)-6,7-dihydropyrazolo[1,5-a]pyrazine-3,5(4H)-dicarboxamide], the IC50 at CK1δ and at CK1ε was 0.01 to 10 nM in each case.

With `Cc1n[nH]c2c(Cl)cc(-c3nn4c(c3C(N)=O)CN(C(=O)Nc3ccc(C#N)cc3)CC4)cc12` [Compound 320, 2-(7-Chloro-3-methyl-1H-indazol-5-yl)-N^5-(4-cyanophenyl)-6,7-dihydropyrazolo[1,5-a]pyrazine-3,5(4H)-dicarboxamide], the concentration for half-maximal inhibition (IC50) at CK1δ and on CK1ε was 0.01 to 10 nM throughout.

In the case of `CC(C)(C)NC(=O)N1CCn2nc(-c3ccc(Cl)c(Cl)c3)c(C(N)=O)c2C1` [Compound 129, N^5-(tert-Butyl)-2-(3,4-dichlorophenyl)-6,7-dihydropyrazolo[1,5-a]pyrazine-3,5(4H)-dicarboxamide], the IC50 at CK1δ and at CK1ε was 0.01 to 10 nM throughout.

In the case of `Cc1ncc(-c2ccc(NC(=O)N3CCn4nc(-c5cccc(Cl)c5)c(C(N)=O)c4C3)cc2)o1` [Compound A47, 2-(3-Chlorophenyl)-N^5-(4-(2-methyloxazol-5-yl)phenyl)-6,7-dihydropyrazolo[1,5-a]pyrazine-3,5(4H)-dicarboxamide], the IC50 on CK1δ and on CK1ε was 0.01 to 10 nM throughout.

As for `NC(=O)c1c(-c2cccc(F)c2)nn2c1CN(C(=O)Nc1cccc(C(F)(F)F)c1)CC2` [Compound 50, 2-(3-Fluorophenyl)-N^5-(3-(trifluoromethyl)phenyl)-6,7-dihydropyrazolo[1,5-a]pyrazine-3,5(4H)-dicarboxamide], the IC50 at CK1δ and on CK1ε was 0.01 to 10 nM each time.

Regarding `N#Cc1cccc(NC(=O)N2CCn3nc(-c4cccc(Cl)c4)c(C(N)=O)c3C2)c1` [Compound 161, 2-(3-Chlorophenyl)-N^5-(3-cyanophenyl)-6,7-dihydropyrazolo[1,5-a] pyrazine-3,5(4H)-dicarboxamide], the IC50 at CK1δ and at CK1ε was 0.01 to 10 nM throughout.

As for `Cn1ncc2cc(-c3nn4c(c3C(N)=O)CN(C(=O)Nc3ccc(C#N)cc3)CC4)cc(Cl)c21` [Compound 318, 2-(7-Chloro-1-methyl-1H-indazol-5-yl)-N^5-(4-cyanophenyl)-6,7-dihydropyrazolo[1,5-a]pyrazine-3,5(4H)-dicarboxamide], the IC50 on CK1δ and on CK1ε was 0.01 to 10 nM throughout.

As to `NC(=O)c1c(-c2cccc(F)c2)nn2c1CN(C(=O)NC1C[C@H]1c1ccccc1)CC2` (stereo in doubt) [Compound 44, 2-(3-Fluorophenyl)-N^5-((1R,2S)-2-phenylcyclopropyl)-6,7-dihydropyrazolo[1,5-a]pyrazine-3,5(4H)-dicarboxamide], the IC50 at CK1δ fell in the range of 0.01 to 10 nM; at CK1ε, 10 to 100 nM.

As for `NC(=O)c1c(-c2cccc(F)c2)nn2c1CN(C(=O)NC1CCCC1)CC2` [Compound 9, N^5-Cyclopentyl-2-(3-fluorophenyl)-6,7-dihydropyrazolo[1,5-a]pyrazine-3,5(4H)-dicarboxamide], the IC50 on CK1δ and on CK1ε was 0.01 to 10 nM in each case.

With `Cc1cc(Cl)cc(-c2nn3c(c2C(N)=O)CN(C(=O)Nc2ccc(C#N)c(Cl)c2)CC3)c1` [Compound A63, N^5-(3-Chloro-4-cyanophenyl)-2-(3-chloro-5-methylphenyl)-6,7-dihydropyrazolo[1,5-a]pyrazine-3,5(4H)-dicarboxamide], the IC50 on CK1δ and at CK1ε was 0.01 to 10 nM in each case.

With `CNC(=O)c1c(-c2ccc(F)c(Cl)c2)nn2c1CN(C(=O)Nc1ccc(C#N)cc1)CC2` [Compound A64, 2-(3-Chloro-4-fluorophenyl)-N^5-(4-cyanophenyl)-N3-methyl-6,7-dihydropyrazolo[1,5-a]pyrazine-3,5(4H)-dicarboxamide], the IC50 at CK1δ and on CK1ε was 100 to 2000 nM in each case.

Consider `CC(C)(C)c1cc(NC(=O)N2CCn3nc(-c4cccc(Cl)c4)c(C(N)=O)c3C2)ccc1C#N` [Compound A42, N^5-(3-(tert-Butyl)-4-cyanophenyl)-2-(3-chlorophenyl)-6,7-dihydropyrazolo[1,5-a]pyrazine-3,5(4H)-dicarboxamide], for which the IC50 at CK1δ and at CK1ε was 0.01 to 10 nM each time.

On to `NC(=O)c1c(-c2ccc(F)c(F)c2)nn2c1CN(C(=O)Nc1ccc3c(c1)OC(F)(F)O3)CC2` [Compound 232, N^5-(2,2-Difluorobenzo [d][1,3]dioxol-5-yl)-2-(3,4-difluorophenyl)-6,7-dihydropyrazolo [1,5-a]pyrazine-3,5(4H)-dicarboxamide], for which the 50% inhibitory concentration (IC50) on CK1δ and at CK1ε was 0.01 to 10 nM each time.

With `COc1cc(Cl)cc(-c2nn3c(c2C(N)=O)CN(C(=O)NC(C)(C)C)CC3)c1` [Compound 152, N^5-(tert-Butyl)-2-(3-chloro-5-methoxyphenyl)-6,7-dihydropyrazolo[1,5-a]pyrazine-3,5(4H)-dicarboxamide], the IC50 at CK1δ and at CK1ε was 0.01 to 10 nM each time.

With `COc1cccc(NC(=O)N2CCn3nc(-c4cccc(Cl)c4)c(C(N)=O)c3C2)c1` [Compound 170, 2-(3-Chlorophenyl)-N^5-(3-methoxyphenyl)-6,7-dihydropyrazolo[1,5-a] pyrazine-3,5(4H)-dicarboxamide], the IC50 on CK1δ and at CK1ε was 0.01 to 10 nM each time.
